{
  "source": "patent US20020137929A1",
  "about": "“1 - (3-heterocyclylphenyl) isothiourea, -isourea, -guanidine and -amidine herbicidal agents” (Intellectual Property Department, BASF Aktiengesellschaft, priority 1998, published 2002)",
  "key": {"[1]": {"tested_on": "IPOHE (Morningglory, Ivyleaf)", "assay": "Preemergence herbicidal evaluation", "format": "in vivo, Ipomoea hederacea", "conditions": "preemergence, rated 4-5 weeks after treatment, 0-9 scale", "in_short": "(§1)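 Seeds were mixed with potting soil and planted on about one inch of soil, then sprayed with test compound in aqueous acetone at about 0.0156 to 0.500 kg per hectare. Plants grew under standard greenhouse care and were visually rated 0-9 against untreated controls 4-5 weeks post-treatment.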"}, "[2]": {"tested_on": "GLXMAW (Soybean, Williams)", "assay": "Preemergence herbicidal evaluation", "format": "in vivo, Glycine max, (L.) Merr. cv Williams", "conditions": "preemergence, rated 4-5 weeks after treatment, 0-9 scale", "in_short": "as §1"}, "[3]": {"tested_on": "ABUTH (Velvetleaf)", "assay": "Preemergence herbicidal evaluation", "format": "in vivo, Abutilon theophrasti", "conditions": "preemergence, rated 4-5 weeks after treatment, 0-9 scale", "in_short": "as §1"}, "[4]": {"tested_on": "TRZAWR (Wheat, Winter, cv Riband)", "assay": "Preemergence herbicidal evaluation", "format": "in vivo, Triticum aestivum", "conditions": "preemergence, rated 4-5 weeks after treatment, 0-9 scale", "in_short": "as §1"}, "[5]": {"tested_on": "CHEAL (Lambsquarters, Common)", "assay": "Postemergence herbicidal evaluation", "format": "in vivo, Chenopodium album", "conditions": "postemergence", "in_short": "(§2)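 Visual 0-9 injury score (stand, vigor, malformation, size, chlorosis, appearance vs untreated) taken four to five weeks post-spray, averaged across repeat tests. Test plants about two weeks old; foliar spray of acetone/water (1:1) with 0.5% surfactant delivering ~0.0156-0.500 kg active/ha.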"}, "[6]": {"tested_on": "SETVI (Foxtail, Green)", "assay": "Postemergence herbicidal evaluation", "format": "in vivo, Setaria viridis", "conditions": "postemergence", "in_short": "as §2"}, "[7]": {"tested_on": "CYPIR (Rice Flatsedge)", "assay": "Postemergence weed control under flooded paddy conditions", "format": "in vivo, Cyperus iria", "conditions": "postemergence weeds, rated 3 to 4 weeks after treatment", "in_short": "(§3)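 Containers holding 3–5 cm weeds and rice at 1.5–2.5 leaves are flooded to 1.5–3 cm above soil. Compound in 50/50 v/v aqueous/acetone is then added directly to the water, about 0.0313–0.500 kg/ha. Plants are kept in the greenhouse and rated 0–9 visually at 3–4 weeks.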"}, "[8]": {"tested_on": "ZEAMX (Corn, Field)", "assay": "Postemergence herbicidal evaluation", "format": "in vivo, Zea mays", "conditions": "postemergence", "in_short": "as §2"}, "[9]": {"tested_on": "ABUTH (Velvetleaf)", "assay": "Postemergence herbicidal evaluation", "format": "in vivo, Abutilon theophrasti", "conditions": "postemergence", "in_short": "as §2"}, "[10]": {"tested_on": "ORYSAT (Rice, Tebonnet)", "assay": "Postemergence herbicidal evaluation", "format": "in vivo, Oryza sativa, (L.) Tebonnet", "conditions": "postemergence", "in_short": "as §2"}, "[11]": {"tested_on": "CASOB (Sicklepod)", "assay": "Preemergence herbicidal evaluation", "format": "in vivo, Cassia obtusifolia", "conditions": "preemergence, rated 4-5 weeks after treatment, 0-9 scale", "in_short": "as §1"}, "[12]": {"tested_on": "ECHCG (Barnyardgrass)", "assay": "Postemergence herbicidal evaluation", "format": "in vivo, Echinochloa crus-galli", "conditions": "postemergence", "in_short": "as §2"}, "[13]": {"tested_on": "IPOHE (Morningglory, Ivyleaf)", "assay": "Postemergence herbicidal evaluation", "format": "in vivo, Ipomoea hederacea", "conditions": "postemergence", "in_short": "as §2"}, "[14]": {"tested_on": "CHEAL (Lambsquarters, Common)", "assay": "Preemergence herbicidal evaluation", "format": "in vivo, Chenopodium album", "conditions": "preemergence, rated 4-5 weeks after treatment, 0-9 scale", "in_short": "as §1"}, "[15]": {"tested_on": "CYPSE (Flatsedge)", "assay": "Postemergence weed control under flooded paddy conditions", "format": "in vivo, Cyperus serotinus", "conditions": "postemergence weeds, rated 3 to 4 weeks after treatment", "in_short": "as §3"}, "[16]": {"tested_on": "ZEAMX (Corn, Field)", "assay": "Preemergence herbicidal evaluation", "format": "in vivo, Zea mays", "conditions": "preemergence, rated 4-5 weeks after treatment, 0-9 scale", "in_short": "as §1"}, "[17]": {"tested_on": "ECHCG (Barnyardgrass)", "assay": "Preemergence herbicidal evaluation", "format": "in vivo, Echinochloa crus-galli", "conditions": "preemergence, rated 4-5 weeks after treatment, 0-9 scale", "in_short": "as §1"}},
  "data": [
    {"smiles": "CN1C(=O)C(CC(N)=O)SC1=Nc1cc(-n2c(=O)cc(C(F)(F)F)n(C)c2=O)c(F)cc1Cl", "note": "(centres unmarked) [Compound 92, 2-{{2-Chloro-5-[3,6-dihydro-3-methyl-2,6-dioxo-4-(trifluoromethyl)-1(2H)-pyrimidinyl]-4-fluorophenyl}imino}-3-methyl-4-oxo-5-thiazolidineacetamide]", "values": [
      {"measurement": "IPOHE rating", "setting": "[1]; 0.0156 kg/ha", "value": 0.0},
      {"measurement": "IPOHE rating", "setting": "[1]; 0.0313 kg/ha", "value": 0.0},
      {"measurement": "IPOHE rating", "setting": "[1]; 0.0625 kg/ha", "value": 0.0},
      {"measurement": "IPOHE rating", "setting": "[1]; 0.1250 kg/ha", "value": 9.0},
      {"measurement": "IPOHE rating", "setting": "[1]; 0.2500 kg/ha", "value": 9.0},
      {"measurement": "GLXMAW rating", "setting": "[2]; 0.0156 kg/ha", "value": 0.0},
      {"measurement": "GLXMAW rating", "setting": "[2]; 0.0313 kg/ha", "value": 0.0},
      {"measurement": "GLXMAW rating", "setting": "[2]; 0.0625 kg/ha", "value": 0.0},
      {"measurement": "GLXMAW rating", "setting": "[2]; 0.1250 kg/ha", "value": 1.0},
      {"measurement": "GLXMAW rating", "setting": "[2]; 0.2500 kg/ha", "value": 5.0},
      {"measurement": "ABUTH rating", "setting": "[3]; 0.0156 kg/ha", "value": 0.0},
      {"measurement": "ABUTH rating", "setting": "[3]; 0.0313 kg/ha", "value": 3.0},
      {"measurement": "ABUTH rating", "setting": "[3]; 0.0625 kg/ha", "value": 9.0},
      {"measurement": "ABUTH rating", "setting": "[3]; 0.1250 kg/ha", "value": 9.0},
      {"measurement": "ABUTH rating", "setting": "[3]; 0.2500 kg/ha", "value": 9.0},
      {"measurement": "TRZAWR rating", "setting": "[4]; 0.0156 kg/ha", "value": 0.0},
      {"measurement": "TRZAWR rating", "setting": "[4]; 0.0313 kg/ha", "value": 0.0},
      {"measurement": "TRZAWR rating", "setting": "[4]; 0.0625 kg/ha", "value": 0.0},
      {"measurement": "TRZAWR rating", "setting": "[4]; 0.1250 kg/ha", "value": 0.0},
      {"measurement": "TRZAWR rating", "setting": "[4]; 0.2500 kg/ha", "value": 2.0},
      {"measurement": "CHEAL herbicidal rating", "setting": "[5]; rate 0.0158 kg/ha", "value": 2.0},
      {"measurement": "CHEAL herbicidal rating", "setting": "[5]; rate 0.0315 kg/ha", "value": 9.0},
      {"measurement": "CHEAL herbicidal rating", "setting": "[5]; rate 0.0630 kg/ha", "value": 9.0},
      {"measurement": "SETVI herbicidal rating", "setting": "[6]; rate 0.0158 kg/ha", "value": 0.0},
      {"measurement": "SETVI herbicidal rating", "setting": "[6]; rate 0.0315 kg/ha", "value": 9.0},
      {"measurement": "SETVI herbicidal rating", "setting": "[6]; rate 0.0630 kg/ha", "value": 9.0},
      {"measurement": "Herbicidal rating CYPIR", "setting": "[7]; Rate 0.0313 kg/ha", "value": 3.0},
      {"measurement": "Herbicidal rating CYPIR", "setting": "[7]; Rate 0.0625 kg/ha", "value": 3.0},
      {"measurement": "Herbicidal rating CYPIR", "setting": "[7]; Rate 0.1250 kg/ha", "value": 5.0},
      {"measurement": "Herbicidal rating CYPIR", "setting": "[7]; Rate 0.2500 kg/ha", "value": 7.0},
      {"measurement": "ZEAMX herbicidal rating", "setting": "[8]; rate 0.0158 kg/ha", "value": 6.0},
      {"measurement": "ZEAMX herbicidal rating", "setting": "[8]; rate 0.0315 kg/ha", "value": 7.5},
      {"measurement": "ZEAMX herbicidal rating", "setting": "[8]; rate 0.0630 kg/ha", "value": 8.0},
      {"measurement": "ABUTH herbicidal rating", "setting": "[9]; rate 0.0158 kg/ha", "value": 9.0},
      {"measurement": "ABUTH herbicidal rating", "setting": "[9]; rate 0.0315 kg/ha", "value": 9.0},
      {"measurement": "ABUTH herbicidal rating", "setting": "[9]; rate 0.0630 kg/ha", "value": 9.0},
      {"measurement": "ORYSAT herbicidal rating", "setting": "[10]; rate 0.0158 kg/ha", "value": 1.5},
      {"measurement": "ORYSAT herbicidal rating", "setting": "[10]; rate 0.0315 kg/ha", "value": 2.0},
      {"measurement": "ORYSAT herbicidal rating", "setting": "[10]; rate 0.0630 kg/ha", "value": 3.5},
      {"measurement": "CASOB rating", "setting": "[11]; 0.0156 kg/ha", "value": 0.0},
      {"measurement": "CASOB rating", "setting": "[11]; 0.0313 kg/ha", "value": 0.0},
      {"measurement": "CASOB rating", "setting": "[11]; 0.0625 kg/ha", "value": 0.0},
      {"measurement": "CASOB rating", "setting": "[11]; 0.2500 kg/ha", "value": 3.0},
      {"measurement": "ECHCG herbicidal rating", "setting": "[12]; rate 0.0158 kg/ha", "value": 0.0},
      {"measurement": "ECHCG herbicidal rating", "setting": "[12]; rate 0.0315 kg/ha", "value": 1.0},
      {"measurement": "ECHCG herbicidal rating", "setting": "[12]; rate 0.0630 kg/ha", "value": 1.0},
      {"measurement": "IPOHE herbicidal rating", "setting": "[13]; rate 0.0158 kg/ha", "value": 9.0},
      {"measurement": "IPOHE herbicidal rating", "setting": "[13]; rate 0.0315 kg/ha", "value": 9.0},
      {"measurement": "IPOHE herbicidal rating", "setting": "[13]; rate 0.0630 kg/ha", "value": 9.0},
      {"measurement": "CHEAL rating", "setting": "[14]; 0.0156 kg/ha", "value": 9.0},
      {"measurement": "CHEAL rating", "setting": "[14]; 0.0313 kg/ha", "value": 9.0},
      {"measurement": "CHEAL rating", "setting": "[14]; 0.0625 kg/ha", "value": 9.0},
      {"measurement": "CHEAL rating", "setting": "[14]; 0.1250 kg/ha", "value": 9.0},
      {"measurement": "CHEAL rating", "setting": "[14]; 0.2500 kg/ha", "value": 9.0},
      {"measurement": "Herbicidal rating CYPSE", "setting": "[15]; Rate 0.0313 kg/ha", "value": 9.0},
      {"measurement": "Herbicidal rating CYPSE", "setting": "[15]; Rate 0.0625 kg/ha", "value": 9.0},
      {"measurement": "Herbicidal rating CYPSE", "setting": "[15]; Rate 0.1250 kg/ha", "value": 9.0},
      {"measurement": "Herbicidal rating CYPSE", "setting": "[15]; Rate 0.2500 kg/ha", "value": 9.0},
      {"measurement": "ZEAMX rating", "setting": "[16]; 0.0156 kg/ha", "value": 0.0},
      {"measurement": "ZEAMX rating", "setting": "[16]; 0.0313 kg/ha", "value": 0.0},
      {"measurement": "ZEAMX rating", "setting": "[16]; 0.0625 kg/ha", "value": 0.0},
      {"measurement": "ZEAMX rating", "setting": "[16]; 0.1250 kg/ha", "value": 0.0},
      {"measurement": "ZEAMX rating", "setting": "[16]; 0.2500 kg/ha", "value": 6.0},
      {"measurement": "ECHCG rating", "setting": "[17]; 0.0156 kg/ha", "value": 0.0},
      {"measurement": "ECHCG rating", "setting": "[17]; 0.0313 kg/ha", "value": 0.0},
      {"measurement": "ECHCG rating", "setting": "[17]; 0.0625 kg/ha", "value": 0.0},
      {"measurement": "ECHCG rating", "setting": "[17]; 0.1250 kg/ha", "value": 0.0},
      {"measurement": "ECHCG rating", "setting": "[17]; 0.2500 kg/ha", "value": 0.0}
    ]}
  ]
}
